Test results taken from patent publication US20250099407A1, “2-AMINO BENZOPHENONE DERIVATIVES FOR TARGETED FERROPTOSIS INDUCTION IN CANCER THERAPY” (INDIAN INSTITUTE OF TECHNOLOGY KANPUR, priority 2023, published 2025).
Like-named read-outs stand apart in the source and are kept apart here.

Tests used:
U2OS = assay: Cell viability, CellTiter-Glo assay, U2OS; assay type: cell-based
In short: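 Cell viability was measured by CellTiter-Glo ATP luminescence in DMEM, with DMSO control. The compound was tested in an 8-point 3-fold dilution series from 100 or 10 μM down to 45 or 4.5 nM. Each run had at least two biological replicates, each in technical triplicate.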

Huh-7 cells = assay: Cell viability, luminescence-based CellTiter-Glo assay, Huh-7 cells
In short: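 ATP-based CellTiter-Glo luminescence in Huh-7 cells in DMEM, with DMSO (>0.1%) as control. Single-point screens used 10 μM compound with or without Fer-1 (10 μM); dose responses used 8-point 3-fold dilutions from 100/10 μM to 45/4.5 nM. More than two biological replicates with three technical replicates each.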

A549 = assay: Cell viability, A549; assay type: cell-based; settings: Homo sapiens
PC3 = assay: Cell viability, CellTiter-Glo assay, PC3; assay type: cell-based
Procedure: (§1) The viability of screened cancer cells was recorded using a luminescence-based CellTiter-Glo® assay for the ATP quantification. The screening concentration of the molecule ranged from 100/10 μM to 45/4.5 nM with an 8-point-3-fold dilution series in DMEM media (>0.1% DMSO as control). Each experiment was conducted in more than two biological replicates with three technical replicates. The error bar is a representation of standard deviation among the technical replicates.
as §1, with “IITK3002” for “the molecule”, “10” for “100/10”, “4.5” for “45/4.5”
a. […] In parallel, we have also synthesized the bromoacetamide (IITK3002) version of the lead molecules which is slightly more reactive with thiol nucleophiles when compared to chlorooacetamide warheads as depicted in FIG. 13. […] In addition, we also evaluated the molecules' antiproliferative potency against a panel of twelve different cancer phenotypes. The set of cancer cell lines included liver, breast, colon, myeloma, bone, blood, skin, brain and prostate lineages (FIG. 2, 3, Table 1).

[1] = Homo sapiens, Huh-7, Huh-7 cells, cell viability, read-out: EC50 Huh-7
[2] = Huh-7 cells, cell viability, read-out: EC50 Huh-7
[3] = Homo sapiens, PC-3, PC3, cell viability
[4] = Homo sapiens, Huh-7, Huh-7 cells, antiproliferative activity, read-out: EC50 in Huh-7 cells

Row | SMILES | EC50 (U2OS) | EC50 (U2OS; Homo sapiens) | screening of electrophilic small molecules, viability of Huh-7 cells (Huh-7 cells; 10 μM with or without Fer-1 (10 μM)) | EC50 (Huh-7 cells; [1]) | EC50 (Huh-7 cells; [2]) | EC50 (A549) | EC50 (PC3; [3]) | EC50 (PC3; PC3, cell viability) | EC50 (Huh-7 cells; [4]) | EC50 (Huh-7 cells; Huh-7 cells, antiproliferative activity, read-out: EC50 in Huh-7 cells)
1 | CN(C(=O)CCl)c1ccccc1C(=O)c1ccccc1 [IITK3001, N-(2-benzoylphenyl)-2-chloro-N-methylacetamide] | 350 nM | 355 nM | potent inhibitors of Huh-7 cells | 233 nM | 233 nM | 610 nM | 348 nM | 350 nM |  | 
2 | CN(C(=O)CBr)c1ccccc1C(=O)c1ccccc1 [IITK3002, N-(2-benzoylphenyl)-2-bromo-N-methylacetamide] | 130 nM | 133 nM |  | 32 nM | 32 nM | 30 nM | 193 nM | 190 nM | 30 nM | 
3 | C#CCN(C(=O)CCl)c1ccccc1C(=O)c1ccccc1 [IITK3003, N-(2-benzoylphenyl)-2-chloro-N-(prop-2-yn-1-yl)acetamide] |  | 1290 nM |  | 43.6 nM |  | 700 nM | 1110 nM |  | 44 nM | 60 nM
